The target of assay [1] is JAK2 (recombinant purified GST-tagged catalytic domain) (Homo sapiens (Human), UniProt O60674). Kind of assay: Jak Biochemical HTRF Assay (JAK2). Conditions: [ATP] 8.5 μM. A general note: TR-FRET usually uses a lanthanide donor and a delayed reading to cut background.
Assay [2] addresses JAK1 (recombinant purified GST-tagged catalytic domain) (Homo sapiens (Human), UniProt P23458). Kind of assay: Jak Biochemical HTRF Assay (JAK1). Conditions: [ATP] 31.8 μM. The gist of the method: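 HTRF format, biotinylated peptide substrate; ATP-initiated reaction 120 min RT; EDTA quench + streptavidin-Dylight 650/Eu-anti-pY20 detection, 60 min RT; signal = 665/615 ratio ×10,000; normalized % inhibition, 4-parameter fit → IC50.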

What is called IC50 is the concentration that inhibits the measured activity by half.

JAK2 (recombinant purified GST-tagged catalytic domain), sequence (O60674 849-1124): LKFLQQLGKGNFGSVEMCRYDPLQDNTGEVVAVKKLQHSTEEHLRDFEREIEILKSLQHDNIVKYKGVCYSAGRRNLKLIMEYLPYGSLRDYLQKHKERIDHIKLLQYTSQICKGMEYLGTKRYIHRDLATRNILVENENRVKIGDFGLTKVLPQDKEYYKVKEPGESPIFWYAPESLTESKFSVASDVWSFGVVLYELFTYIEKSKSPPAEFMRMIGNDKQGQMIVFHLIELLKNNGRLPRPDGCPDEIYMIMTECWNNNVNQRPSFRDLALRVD
JAK1 (recombinant purified GST-tagged catalytic domain), sequence (P23458 875-1153): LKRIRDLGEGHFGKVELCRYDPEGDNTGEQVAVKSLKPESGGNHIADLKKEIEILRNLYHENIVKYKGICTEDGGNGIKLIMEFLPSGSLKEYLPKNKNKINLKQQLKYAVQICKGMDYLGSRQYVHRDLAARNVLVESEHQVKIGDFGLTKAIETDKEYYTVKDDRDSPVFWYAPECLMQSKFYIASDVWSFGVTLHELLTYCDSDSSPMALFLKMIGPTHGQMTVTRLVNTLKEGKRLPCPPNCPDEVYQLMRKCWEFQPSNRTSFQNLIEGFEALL

As to `CN(C)S(=O)(=O)c1ccc(Nc2nn(C3(CC#N)CCN(Cc4ccc(-c5ccon5)cc4)CC3)c3cc[nH]c(=O)c23)cc1` [Example 8-13, 4-({1-[4-(cyanomethyl)-1-(4-isoxazol-3-ylbenzyl)piperidin-4-yl]-4-oxo-4,5-dihydro-1H-pyrazolo[4,3-c]pyridin-3-yl}amino)-N,N-dimethylbenzenesulfonamide], the half-inhibitory concentration (IC50) in assay [1] is 0.75 nM; in assay [2], 0.31 nM.

With `N#CC[C@]1(n2nc(Nc3ccc(C(F)(F)F)cc3)c3c(=O)[nH]ccc32)CC[C@@H](Nc2ccccc2)CC1` [Example 18-3, Cis 2-(1-(4-oxo-3-((4-(trifluoromethyl)phenyl)amino)-4,5-dihydro-1H-pyrazolo[4,3-c]pyridin-1-yl)-4-(phenylamino)cyclohexyl)acetonitrile], the IC50 in assay [1] came out at 1290 nM; in assay [2] it was 41.1 nM.

As for `CC(C)(C)OC(=O)[C@@H]1CC[C@@](CC#N)(n2nc(Nc3ccc(C(C)(O)C(F)(F)F)cc3)c3c(=O)[nH]ccc32)CO1` (single isomer, unassigned) [Example 5-170, (2S,5S)-tert-butyl 5-(cyanomethyl)-5-(4-oxo-3-((4-((S or R)-1,1,1-trifluoro-2-hydroxypropan-2-yl)phenyl)amino)-4,5-dihydro-1H-pyrazolo[4,3-c]pyridin-1-yl)tetrahydro-2H-pyran-2-carboxylate], the IC50 in assay [1] is 0.48 nM; in assay [2], 0.14 nM.

`CN(C)S(=O)(=O)c1ccc(Nc2nn(C3(CC#N)CCN(C(=O)O[C@@H]4CCOC4)CC3)c3cc[nH]c(=O)c23)cc1` [Example 11-6, (R)-tetrahydrofuran-3-yl 4-(cyanomethyl)-4-(3-((4-(N,N-dimethylsulfamoyl)phenyl)amino)-4-oxo-4,5-dihydro-1H-pyrazolo[4,3-c]pyridin-1-yl)piperidine-1-carboxylate]: the figures for the 50% inhibitory concentration (IC50) in assay [1] and in assay [2] were 0.47 nM and 0.12 nM, respectively.

With `Cc1cc(C)cc(Nc2nn(C3(CC#N)CCN(C(=O)OC(C)(C)C)CC3)c3cc[nH]c(=O)c23)c1` [Example 5-61, tert-butyl 4-(cyanomethyl)-4-(3-(3,5-dimethylphenylamino)-4-oxo-4,5-dihydropyrazolo[4,3-c]pyridin-1-yl)piperidine-1-carboxylate], the IC50 was found to be 12.7 nM in assay [1] and 0.64 nM in assay [2].

Take `Cc1cc(Nc2nn([C@]3(CC#N)CC[C@@H](C(=O)OC(C)(C)C)OC3)c3cc[nH]c(=O)c23)ccc1C(=O)N1CC(C)OC(C)C1` (single isomer, unassigned) [Example 20-13, (2S,5S)-tert-butyl 5-(cyanomethyl)-5-(3-((4-((2S,6S or 2R,6R)-2,6-dimethylmorpholine-4-carbonyl)-3-methylphenyl)amino)-4-oxo-4,5-dihydro-1H-pyrazolo[4,3-c]pyridin-1-yl)tetrahydro-2H-pyran-2-carboxylate]: the IC50 was found to be 0.26 nM in assay [1] and 0.22 nM in assay [2].

`CN(C)S(=O)(=O)c1ccc(Nc2nn(C3(CC#N)CCN(C(=O)CC(F)(F)F)CC3)c3cc[nH]c(=O)c23)cc1` [Example 9-2, 4-({1-[4-(cyanomethyl)-1-(3,3,3-trifluoropropanoyl)piperidin-4-yl]-4-oxo-4,5-dihydro-1H-pyrazolo[4,3-c]pyridin-3-yl}amino)-N,N-dimethylbenzenesulfonamide]: the IC50 in assay [1] came to 0.31 nM; in assay [2] it was 0.08 nM.

Take `CN(C)S(=O)(=O)c1ccc(Nc2nn(C3(CC#N)CCN(C(=O)O[C@H]4CCOC4)CC3)c3cc[nH]c(=O)c23)cc1` [Example 11-11, (S)-tetrahydrofuran-3-yl 4-(cyanomethyl)-4-(3-((4-(N,N-dimethylsulfamoyl)phenyl)amino)-4-oxo-4,5-dihydro-1H-pyrazolo[4,3-c]pyridin-1-yl)piperidine-1-carboxylate]: the half-inhibitory concentration (IC50) in assay [1] was determined as 0.91 nM; in assay [2] it was 0.16 nM.

For the origin of these results see US9957264B2 (Merck Sharp & Dohme Corp., priority 2013, dated 2018).
